We go through one molecule from article PMC7993727, “Discovery of a novel AR/HDAC6 dual inhibitor for prostate cancer treatment” (Aging (Albany NY), 2021).

In series [1] the target is T1, HDAC2 (Homo sapiens, UniProt Q92769).
T1 construct: purchased BPS Bioscience
Nature of the series: biochemical. As for the experimental part: (§1) Commercial fluorescent assay kits were used to measure the activities of HDAC (BPS Bioscience). Briefly, the tested compounds were diluted in DMSO into a 96-well plate, and then assay buffer, HDAC, and substrate were added. The plate was incubated at 37° C for 30 minutes for enzymatic reactions, and the developer was added. After 10 minutes of incubation, the generated fluorescence was measured at an excitation of 380 nm and an emission of 460 nm.

Series [2] has as its target T2, HDAC1 (Homo sapiens, UniProt Q13547).
T2 construct: purchased BPS Bioscience
As to the kind of experiment: fluorescent-based HDAC assay. Type of series: biochemical. How it is done:
as §1

Series [3] has as its target T3, HDAC3 (Homo sapiens, UniProt O15379).
T3 construct: purchased BPS Bioscience
As to the kind of experiment: fluorescent-based HDAC assay. The format is biochemical. As for the experimental part: as §1

The target in series [4] is T4, HDAC4 (Homo sapiens, UniProt P56524).
T4 construct: purchased BPS Bioscience
Nature of the series: fluorescent-based HDAC assay. The format is biochemical. As for the experimental part: as §1

Series [5] concerns LNCaP cells. As to the kind of experiment: cell proliferation assay. Type of series: cell-based. The following applies: Homo sapiens, 72 h, read-out: IC50 values proliferation LNCaP. As for the experimental part:
(§2) After 7 days, cell viability was measured using a CellTiter 96® AQueous One Solution Cell Proliferation Assay kit (Promega).

Series [6] deals with VCaP cells. Nature of the series: cell proliferation assay. Type of series: cell-based. How it is done: as §2
The test system of series [7] is HEK293 cells. As to the kind of experiment: cell proliferation assay. The format is cell-based. The following applies: Homo sapiens, HEK293, 72 h, read-out: IC50 values proliferation HEK293.
Series [8] concerns PSA. Nature of the series: PSA mRNA (qRT-PCR) and protein (Western blot) expression in VCaP cells. The format is cell-based. As to conditions: 10 nM DHT, 24 hours. As for the experimental part: RNA expression level was analyzed by qRT-PCR and protein expression level was analyzed by Western blot. […] (I) Representative immunofluorescence microscopic images of VCaP cells for checking the subcellular localization of AR.
The RNA of VCaP cells was extracted using a Simply P Total RNA Extraction kit (Bioer technology) and cDNA was synthesized using a SMARTer PCR cDNA Synthesis Kit (Clontech). PSA and β-actin primers were synthesized by Sangon Biotech according to previous literature. Real-time PCR was performed using the PowerUp SYBR™ Green kit (ThermoFisher). The PCR program was run on a LightCycler 480II (Roche) and set as follows: 2 minutes at 95° C followed by 40 cycles of 30 seconds at 95° C, 15 seconds at 60° C and 30 seconds at 72° C. Data were quantified using the 2-ΔΔCt method based on the Ct values of PSA and β-actin from two parallel experiments performed in triplicate.
The whole-cell extracts were prepared in lysis buffer with a protease inhibitor cocktail (Bimake), while the xenograft tissue extracts were prepared in 0.5% Nonidet P 40 Substitute solution (Biosharp) with cocktail protease inhibitor (Bimake). Each sample containing 30 μg of total protein was loaded onto 10% SDS-PAGE and electrotransferred onto polyvinylidene fluoride membranes. […]

Series [9] concerns VCaP xenograft tumors. As to the kind of experiment: castration-resistant VCaP xenograft mouse model. The format is in vivo, NOD-SCID mice. The text has this:
Figure 4 Zeta55 inhibits tumor growth in a CRPC xenograft model. (A) Percentage change in individual tumor volume of NOD-SCID mice with subcutaneous tumor xenograft grown from VCaP cells. NOD-SCID mice were castrated when the tumor volumes reached about 250mm^3 on 63 days after subcutaneous injection of VCaP cells. […]. Tumor sizes were monitored twice a week after treatment. (B) Mean tumor volumes (mm^3, +SEM) of NOD-SCID mice after treatment. (C) Mean body weight (g, +SEM) of NOD-SCID mice after treatment. *, P < 0.01 vs. vehicle.
The animal protocols used in this study were evaluated and approved by the Xiangya Hospital Medical ethics committee of Central South University. NOD-SCID mice were purchased from Hunan SJA Laboratory Animal Co. Ltd. with a quality license and raised in the SPF Laboratory Animal Room of the Department of Laboratory Zoology at Central South University. Briefly, VCaP cells were suspended in DMEM and Matrigel (BD) (1:1), and 5×10^6 cells/100 μl were subcutaneously injected into a 7-week-old male NOD-SCID mouse. […]. VCaP xenografts were measured twice per week in two dimensions (L and W) by a Vernier caliper, and the tumor volume was calculated as W^2×L/2 (mm^3).
Formalin-fixed, paraffin-embedded xenograft tissue sections were used for immunohistochemistry. TUNEL staining was performed according to the instructions in the TUNEL kit (KeyGEN). Tissue sections were deparaffinized and then boiled in 0.01 mol/L sodium citrate buffer (pH 6.0) in a kilowatt microwave oven for 10 minutes to retrieve cell antigens. Ki67 (Abcam, ab15580) or AR (SANTA, sc-7305) was used as the primary antibody. All tissue sections were immunohistochemically stained using the avidin-biotin-peroxidase method and were counterstained with hematoxylin. The staining intensities were evaluated at 100× magnification.

T1 sequence (Q92769 whole entry): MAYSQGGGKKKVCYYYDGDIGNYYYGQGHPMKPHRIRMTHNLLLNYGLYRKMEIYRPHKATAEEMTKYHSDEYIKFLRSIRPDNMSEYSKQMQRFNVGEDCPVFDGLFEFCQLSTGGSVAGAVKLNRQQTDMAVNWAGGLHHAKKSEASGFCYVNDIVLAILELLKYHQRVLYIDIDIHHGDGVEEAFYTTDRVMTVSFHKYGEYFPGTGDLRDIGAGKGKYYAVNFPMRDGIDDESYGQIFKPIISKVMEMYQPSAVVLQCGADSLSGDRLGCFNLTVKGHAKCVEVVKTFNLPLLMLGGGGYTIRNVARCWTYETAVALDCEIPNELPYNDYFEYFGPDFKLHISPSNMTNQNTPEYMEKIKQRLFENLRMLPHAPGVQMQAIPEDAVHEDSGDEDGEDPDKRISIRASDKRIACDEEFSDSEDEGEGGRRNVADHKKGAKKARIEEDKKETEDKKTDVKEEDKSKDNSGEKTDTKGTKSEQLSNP
T4 sequence (P56524 whole entry): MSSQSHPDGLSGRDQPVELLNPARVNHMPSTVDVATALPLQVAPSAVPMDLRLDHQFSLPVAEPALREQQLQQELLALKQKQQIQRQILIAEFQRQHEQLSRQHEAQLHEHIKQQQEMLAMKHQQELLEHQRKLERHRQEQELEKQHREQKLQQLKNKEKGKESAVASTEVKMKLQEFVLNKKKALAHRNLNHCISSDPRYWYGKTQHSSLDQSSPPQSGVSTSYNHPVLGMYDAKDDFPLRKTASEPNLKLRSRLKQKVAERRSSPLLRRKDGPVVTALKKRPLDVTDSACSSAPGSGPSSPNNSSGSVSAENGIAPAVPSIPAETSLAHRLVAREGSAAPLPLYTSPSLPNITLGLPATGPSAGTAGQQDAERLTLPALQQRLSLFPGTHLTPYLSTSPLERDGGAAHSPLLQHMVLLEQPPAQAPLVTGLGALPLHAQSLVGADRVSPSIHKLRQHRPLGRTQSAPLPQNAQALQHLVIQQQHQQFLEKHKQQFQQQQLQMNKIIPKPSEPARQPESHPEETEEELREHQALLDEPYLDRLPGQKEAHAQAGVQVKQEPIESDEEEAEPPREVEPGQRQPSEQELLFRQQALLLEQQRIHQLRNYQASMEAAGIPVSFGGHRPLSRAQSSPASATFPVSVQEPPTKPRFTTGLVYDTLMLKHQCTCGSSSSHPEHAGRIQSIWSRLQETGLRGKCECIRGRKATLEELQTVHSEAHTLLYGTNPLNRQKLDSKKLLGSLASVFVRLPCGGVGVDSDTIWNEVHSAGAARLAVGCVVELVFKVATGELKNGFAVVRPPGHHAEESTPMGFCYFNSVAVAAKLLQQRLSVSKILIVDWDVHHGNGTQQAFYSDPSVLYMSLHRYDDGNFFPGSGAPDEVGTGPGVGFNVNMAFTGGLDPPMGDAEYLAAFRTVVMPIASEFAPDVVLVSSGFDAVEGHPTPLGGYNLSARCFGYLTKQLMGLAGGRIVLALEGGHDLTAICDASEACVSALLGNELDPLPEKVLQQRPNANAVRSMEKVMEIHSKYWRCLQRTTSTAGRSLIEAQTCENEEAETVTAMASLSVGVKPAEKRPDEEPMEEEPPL
T2 sequence (Q13547 whole entry): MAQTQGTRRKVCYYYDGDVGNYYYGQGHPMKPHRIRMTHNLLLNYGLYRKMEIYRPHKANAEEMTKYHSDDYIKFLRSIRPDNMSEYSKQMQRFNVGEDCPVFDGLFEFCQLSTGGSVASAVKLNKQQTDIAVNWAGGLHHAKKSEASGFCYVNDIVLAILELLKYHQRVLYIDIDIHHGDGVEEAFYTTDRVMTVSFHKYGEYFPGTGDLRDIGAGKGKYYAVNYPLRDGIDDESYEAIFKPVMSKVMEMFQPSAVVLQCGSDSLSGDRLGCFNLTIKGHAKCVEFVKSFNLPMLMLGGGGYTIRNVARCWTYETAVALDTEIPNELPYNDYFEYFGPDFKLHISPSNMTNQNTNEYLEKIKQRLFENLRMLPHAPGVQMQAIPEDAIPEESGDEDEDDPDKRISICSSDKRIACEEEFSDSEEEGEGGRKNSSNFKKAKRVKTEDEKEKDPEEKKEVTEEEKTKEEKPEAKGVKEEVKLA
T3 sequence (O15379 whole entry): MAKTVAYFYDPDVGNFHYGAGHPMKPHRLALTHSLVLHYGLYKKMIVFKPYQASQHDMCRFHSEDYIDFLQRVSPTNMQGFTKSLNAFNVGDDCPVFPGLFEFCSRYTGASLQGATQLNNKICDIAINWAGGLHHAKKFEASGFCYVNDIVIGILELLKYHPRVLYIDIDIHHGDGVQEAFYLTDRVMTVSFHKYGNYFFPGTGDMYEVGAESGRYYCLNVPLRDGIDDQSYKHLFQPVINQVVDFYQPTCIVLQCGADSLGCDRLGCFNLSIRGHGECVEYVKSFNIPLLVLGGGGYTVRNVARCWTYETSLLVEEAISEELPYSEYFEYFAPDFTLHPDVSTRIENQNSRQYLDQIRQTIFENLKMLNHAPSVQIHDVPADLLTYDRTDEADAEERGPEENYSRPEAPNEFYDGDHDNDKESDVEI
T3 sequence (Q9Y618 395-489 partner limits assumed): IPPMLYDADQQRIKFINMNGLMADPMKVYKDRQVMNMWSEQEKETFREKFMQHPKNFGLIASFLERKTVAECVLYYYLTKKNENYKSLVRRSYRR

For the molecule `N#Cc1ccc(N2C(=O)C3(CCC3)N(c3ccc(C(=O)NO)c(F)c3)C2=S)cc1C(F)(F)F` [Zeta55], the IC50 is more than 20 µM in [1]; more than 20 µM in [2]; more than 20 µM in series [3]; more than 20 µM in [4]; 8.36 µM in series [5]; 2.47 µM in series [6] (Homo sapiens, VCaP, 168 h, read-out: IC50 values proliferation VCaP). In addition, the IC50 in series [7] was more than 50 µM. The “anti-proliferation activity relative to MDV3100” value in series [6] (VCaP cells) is reported as 4.5 fold. Further, the “DHT-induced endogenous mRNA and protein expression of PSA” value in series [8] is recorded as “significantly suppressed”. Besides, the antitumor activity entry in series [9] (30 mg/kg/d oral, 49 days, compared with MDV3100 30 mg/kg/d) is reported as “slightly better antitumor activity than MDV3100”. The “tumors with tumor regression” value in [9] (60 mg/kg/d oral, 49 days, n=6, castrated NOD-SCID mice) was 5 of 6. The “weights of mice during treatment” value in series [9] (30 and 60 mg/kg daily oral) is on record as “did not decrease significantly”. The “expression of AR and PSA in treated tumors” value in series [9] (immunohistochemical and Western blot analysis, compared to MDV3100 and vehicle) was “decreased expression of AR and PSA”. Besides, the “Ki-67 staining of tumor xenografts” value in series [9] (mouse, in vivo) is “inhibited tumor cell proliferation”. Besides, the “TUNEL staining of tumor xenografts” value in series [9] (mouse, in vivo) is listed as “induced apoptosis”.
